Experimental data as given in paper PMC10033409, “Autoregulation of GPCR signalling through the third intracellular loop” (Nature, 2023).
Where “and” joins values, the source holds several entries; their conditions need not be identical. Equal entries are not always repeated. Structures can show the parent of a compound that is named as a salt.

System: β2AR–Gs peptide FRET sensor
Experiment: ∆FRET assay, β2AR–Gs peptide SPASM FRET sensor
Details: isoproterenol 100 µM

CC(C)NCC(O)c1ccc(O)c(O)c1 (stereo not drawn) [Isoproterenol, isoproterenol (+)-bitartrate salt]
∆FRET (Isoproterenol - Buffer) (HVQ-AAA β2AR–Gs peptide sensor, single experiments N 1-5): 0.012 and 0.013 and 0.020
∆FRET (Isoproterenol - Buffer) (QDG-AAA β2AR–Gs peptide sensor, single experiments N 1-5): 0.021 and 0.017 and 0.027 and 0.030
∆FRET (Isoproterenol - Buffer) (Wild-Type β2AR–Gs peptide sensor, + 10 µM Gq-peptide, single samples): 0.034 and 0.026 and 0.018
∆FRET (Isoproterenol - Buffer) (Wild-Type β2AR–Gs peptide sensor, single experiments N 1-5): 0.014 and 0.016 and 0.017 and 0.019
∆FRET (Isoproterenol - Buffer) (Wild-Type β2AR–Gs peptide sensor, without Gq-peptide, single samples): 0.013 and 0.016 and 0.010 and 0.017 and 0.012
∆FRET (Isoproterenol - Buffer) (∆ICL3 β2AR–Gs peptide sensor, without Gq-peptide, single samples): 0.022 and 0.020 and 0.025 and 0.024
